Experimental data from the CheMixHub ionic liquid set.

Assay: xn = mol fraction of the nth substance listed

O=C(O)CCl + CCCC[N+](CCCC)(CCCC)CCCC.O=S(=O)([O-])O
100 kPa
Settings	electrical conductivity, 303.15 K [S/m]	electrical conductivity, 308.15 K [S/m]	electrical conductivity, 313.15 K [S/m]	electrical conductivity, 333.15 K [S/m]	viscosity, 313.15 K [mPa·s]	viscosity, 333.15 K [mPa·s]
x2 = 0.333	0.027	0.0376	–	–	–	–
x2 = 0.5	–	–	0.01	0.0382	1123	294.2

CCCC[n+]1ccn(C)c1.O=[N+]([O-])[O-] + CCCCCCCO
viscosity [mPa·s], 100 kPa
Settings	293.15 K	303.15 K	313.15 K	323.15 K
x1 = 0.0824	7.76	5.5	3.98	2.87
x1 = 0.1625	8.67	6.03	4.34	3.03
x1 = 0.2317	9.68	6.61	4.7	3.23
x1 = 0.3446	11.46	7.53	5.37	3.67
x1 = 0.4317	13.2	8.53	5.96	4.12
x1 = 0.5762	18.7	11.56	7.74	5.01
x1 = 0.6416	24.3	14.4	9.06	5.69
x1 = 0.7334	41.3	22.6	14	8.49
x1 = 0.8418	82.4	43	26.4	15.8
x1 = 0.9327	146	77.8	47.8	28.1
x1 = 1	224	125	75.1	45.2

CCOS(=O)(=O)[O-].CC[n+]1ccn(C)c1 + CCCCCCO
100 kPa
Settings	viscosity [mPa·s]
288.15 K, x1 = 1	155.5
293.15 K, x1 = 0.1016	7.885
303.15 K, x1 = 0.5956	27.85
323.15 K, x1 = 0.4975	11.85

CC[n+]1ccn(CCOC)c1.N#C[S-] + CCO
100 kPa
Settings	viscosity [mPa·s]
293.15 K, x1 = 0.1	2.15
293.15 K, x1 = 0.3995	8.78
293.15 K, x1 = 0.6	20
293.15 K, x1 = 0.797	42.3
298.15 K, x1 = 0.3002	4.94
303.15 K, x1 = 0.3002	4.39
303.15 K, x1 = 0.8964	35.9
303.15 K, x1 = 1	44.3
308.15 K, x1 = 0.1999	2.58
308.15 K, x1 = 0.7	16.96
308.15 K, x1 = 0.797	23.4
308.15 K, x1 = 0.8964	29.6
308.15 K, x1 = 1	36
313.15 K, x1 = 0.3995	5.28
313.15 K, x1 = 0.797	19.8
318.15 K, x1 = 0.1999	2.14

CCCC[n+]1ccn(C)c1.O=[N+]([O-])[O-] + CCCO
101 kPa
Settings	viscosity [mPa·s]
288.15 K, x2 = 0.121	176
288.15 K, x2 = 0.471	34.53
293.15 K, x2 = 0.673	11.32
298.15 K, x2 = 0.673	9.79
308.15 K, x2 = 0.471	16.82
313.15 K, x2 = 0.364	21.01
318.15 K, x2 = 0.471	12.54
318.15 K, x2 = 0.554	9.21
323.15 K, x2 = 0.121	31.91
323.15 K, x2 = 0.471	10.97
328.15 K, x2 = 0.471	9.68
328.15 K, x2 = 0.755	3.24
328.15 K, x2 = 0.857	2.14
333.15 K, x2 = 0.554	6.37

CC(O)C(=O)[O-].CCC[N+]1(C)CCN(C)CC1 + CC#N
298 K, 101 kPa
Settings	electrical conductivity [S/m]
x2 = 0.824	1.63
x2 = 0.848	1.79
x2 = 0.879	1.94

CC(=O)[O-].Cn1cc[nH+]c1 + CCCC[N+]1(C)CCCC1.O=S(=O)([N-]S(=O)(=O)C(F)(F)F)C(F)(F)F
298.15 K, 100 kPa
Settings	viscosity [mPa·s]
x1 = 0.19	52.7
x1 = 0.5	26.9
x1 = 1	6.22

CCOS(=O)(=O)[O-].CC[n+]1ccn(C)c1 + CCO
298.15 K, 101 kPa
Settings	viscosity [mPa·s]
x2 = 0.2187	47.7
x2 = 0.7508	5.08
x2 = 0.7866	4.31

CCCC[n+]1ccn(C)c1.O=[N+]([O-])[O-] + CCCC[n+]1ccn(C)c1.[Cl-]
Settings	viscosity [mPa·s]
293 K, 101 kPa, x2 = 0.2549	223

C[NH+](C)C.O=S(=O)([N-]S(=O)(=O)C(F)(F)F)C(F)(F)F + N#CCCCC#N
101 kPa, x1 = 0.2167
Settings	viscosity [mPa·s]
288 K	15.76
298 K	11.43
318 K	6.747
353 K	3.452

CC[n+]1ccn(C)c1.[Br-] + C[NH2+]CCC=C1c2ccccc2CCc2ccccc21.[Cl-] + O
viscosity [mPa·s], 100 kPa
Settings	288.15 K	298.15 K	308.15 K	318.15 K
x2 = 0, x1 = 0.0001802	1.141	0.911	0.744	0.627
x2 = 0, x1 = 0.0007203	1.147	0.916	0.748	0.632
x2 = 0, x1 = 0.00126	1.152	0.923	0.754	0.639

NCCOCCO + CN1CCCC1=O + CCCC[n+]1ccn(C)c1.O=S(=O)([N-]S(=O)(=O)C(F)(F)F)C(F)(F)F
viscosity [mPa·s], 101 kPa
Settings	293.15 K	298.15 K	303.15 K	308.15 K	313.15 K	318.15 K	323.15 K	328.15 K	333.15 K
x1 = 0.2949, x2 = 0.6792	5.359	4.682	4.146	3.69	3.316	3.017	2.747	2.523	2.335
x1 = 0.3615, x2 = 0.5637	8.078	6.927	6.008	5.26	4.651	4.139	3.714	3.359	3.062
x1 = 0.4113, x2 = 0.453	12.21	10.27	8.74	7.52	6.54	5.736	5.069	4.517	4.053

CCOS(=O)(=O)[O-].CC[n+]1ccn(C)c1 + CS(C)=O
101 kPa, x1 = 0.3333
Settings	viscosity [mPa·s]
288.15 K	3.92
293.15 K	3.53
313.15 K	2.26
348.15 K	1.27

CCCC[n+]1ccn(C)c1.O=[N+]([O-])[O-] + CC(C)O
100 kPa
Settings	viscosity [mPa·s]
293.15 K, x1 = 0.1596	6.9
293.15 K, x1 = 0.6506	53
293.15 K, x1 = 0.7413	70
298.15 K, x1 = 0.1596	6
298.15 K, x1 = 0.2405	9.3
298.15 K, x1 = 0.7413	56
298.15 K, x1 = 0.8515	82
303.15 K, x1 = 0.1596	5.2
303.15 K, x1 = 0.8515	63
303.15 K, x1 = 0.9396	90
308.15 K, x1 = 0.2405	6.6
308.15 K, x1 = 0.8515	51
308.15 K, x1 = 0.9396	72
308.15 K, x1 = 1	97
313.15 K, x1 = 0.3495	9
313.15 K, x1 = 0.9396	59
313.15 K, x1 = 1	75
318.15 K, x1 = 0.2405	5.2
318.15 K, x1 = 0.3495	7.9
318.15 K, x1 = 1	56
323.15 K, x1 = 0.3495	7.2

COCCCC[n+]1ccn(C)c1.C[C@@H](O)[C@H](N)C(=O)[O-] + CS(C)=O
viscosity [mPa·s], 100 kPa
Settings	x1 = 0.0999	x1 = 0.2013	x1 = 0.3006	x1 = 0.3966	x1 = 0.5	x1 = 0.6011	x1 = 0.7007	x1 = 0.8001	x1 = 0.8946	x1 = 1
288.15 K	14.24	22.21	49.3	102.2	186.6	281	390	560	778	1030
293.15 K	12.05	18.12	37.45	74.9	132.1	192	264	371	503	647
298.15 K	9.53	15.09	30.16	56.54	94.4	135.2	181.5	254	340	424
303.15 K	7.91	12.7	24.02	43.12	69.4	97.9	131.7	179.9	234	290
308.15 K	6.67	10.74	19.82	33.94	52.97	74.4	98.5	133	168.7	205
313.15 K	5.86	9.49	16.58	27.18	39.95	53.5	69.5	90.7	108.9	132.9
318.15 K	5.2	8.31	13.95	21.6	31.33	41.63	53.64	69.5	80.3	98.5

NCCOCCO + O + CCCC[n+]1ccn(C)c1.O=S(=O)([O-])C(F)(F)F
viscosity [mPa·s], 101 kPa
Settings	293.15 K	298.15 K	303.15 K	308.15 K	313.15 K	318.15 K	323.15 K	328.15 K	333.15 K
x1 = 0.182, x2 = 0.8049	11.31	9.2	7.59	6.34	5.37	4.581	3.959	3.457	3.052
x1 = 0.2233, x2 = 0.7322	15.97	12.84	10.48	8.66	7.252	6.139	5.248	4.534	3.956
x1 = 0.4053, x2 = 0.4752	28.79	22.55	17.99	14.6	12.01	10.05	8.52	7.25	6.179

CCOS(=O)(=O)[O-].CC[n+]1ccn(C)c1 + O=C([O-])c1ccccc1.[Na+] + O
viscosity [mPa·s], 101.3 kPa
Settings	293.15 K	298.15 K	303.15 K	308.15 K	313.15 K
x2 = 0, x1 = 0.001795	1.073	0.96	0.845	0.751	0.679
x2 = 0, x1 = 0.002698	1.107	0.987	0.876	0.788	0.709
x2 = 0, x1 = 0.003589	1.136	1.016	0.899	0.811	0.727

C1CC[NH2+]C1.O=[N+]([O-])[O-] + CC1COC(=O)O1
100 kPa
Settings	electrical conductivity [S/m]	viscosity [mPa·s]
283.15 K, x2 = 0.38	–	23
298.15 K, x2 = 0.8865	0.99	–
298.15 K, x2 = 0.8938	0.93	–
313.15 K, x2 = 0	–	21
323.15 K, x2 = 0.5	–	6.1
333.15 K, x2 = 0.7	–	3.1
333.15 K, x2 = 0.78	–	2.6
343.15 K, x2 = 0.38	–	5.2
343.15 K, x2 = 0.6	–	3.4
343.15 K, x2 = 0.7	–	2.7
353.15 K, x2 = 0	–	9.3
353.15 K, x2 = 0.6	–	2.9
353.15 K, x2 = 0.7	–	2.3

CCOS(=O)(=O)[O-].CC[N+]1(C)CCCCC1 + O
101 kPa
Settings	viscosity [mPa·s]
298.15 K, x2 = 0.1867	690
298.15 K, x2 = 0.5338	97
298.15 K, x2 = 0.894	7.4
303.15 K, x2 = 0.894	6.2
308.15 K, x2 = 0	800
308.15 K, x2 = 0.4417	92
308.15 K, x2 = 0.8593	7.7
313.15 K, x2 = 0.4417	71
313.15 K, x2 = 0.8593	6.5
318.15 K, x2 = 0.3409	90
323.15 K, x2 = 0.2704	93
323.15 K, x2 = 0.7839	8.8
328.15 K, x2 = 0.2704	73
328.15 K, x2 = 0.7839	7.5
333.15 K, x2 = 0.1867	80
333.15 K, x2 = 0.7357	8.6
338.15 K, x2 = 0.1867	65
338.15 K, x2 = 0.7357	7.5
343.15 K, x2 = 0	100
343.15 K, x2 = 0.7357	6.8
